From patent US5270190A, “Method for producing (R)-malic acid from maleic acid using microbial maleate hydratase” (priority 1992, dated 1993) come the findings set out here.

Where two headings read alike, the source gives them in different places.

The subject of one data set is maleate hydratase. Nature of the data set: Induction of maleate hydratase by additions to the basal medium (specific activity of the cell sonicate supernatant). Type of data set: cell-based, Brevibacterium helvolum ATCC 11822. As to conditions: for Specific Activity (amount of (R)-malic acid formed): crude enzyme reacted with maleate at 30° C. for 60 minutes, pH 7.2. How it is done:
(§1) In order to obtain a culture containing a maleate hydratase activity by cultivating microorganism capable of producing this enzyme, usual cultivation methods can be used; namely cultivating in a nutrient medium containing organic compounds as a carbon source, organic and/or inorganic compounds as a nitrogen source, and mineral salts, at pH 4 to 10, at 10° to 40° C. It is preferred to add at least one compound selected from the group consisting of maleic acid and citraconic acid since a culture having high maleate hydratase activity can be obtained by the addition of such compound. The concentration of these compounds to be added in a medium is generally from about 0.1 to 3% by weight, preferably from about 0.5 to 2% by weight. The effect of these compounds is shown in Table 1 hereinbelow and Examples 1 and 2.
(§2) *Basal Medium: NH4 Cl 0.1%, KH2 PO4 0.14%, Na2
**Determined by the amount of (R)malic acid formed when reaction mixture
(total volume 2,000 μl, pH 7.2) containing 50 mM TrisHCl buffer (1,700
μl), 100 mM maleate (200 μl), and crude enzyme preparation (cells
sonicate supernatant, 100 μl) was reacted at 30° C. for 60

In data set [1] the test system is Brevibacterium helvolum ATCC 11822. Nature of the data set: Growth in basal medium with additions. Format: cell-based. As to conditions: 1% addition to basal medium. On the procedure:
as §1, §2

Data set [2] deals with microbial maleate hydratase. Format: biochemical.
Data set [3] concerns microbial maleate hydratase. In words: Action and specificity of the enzyme (substrate). Format: biochemical. From the text:
The enzyme catalyzes a reaction in which maleic acid is hydrated to form (R)-malic acid.

Turning to `C/C(=C/C(=O)O)C(=O)O` [Citraconic Acid, citraconic acid], the “Specific Activity (amount of (R)-malic acid formed)” value in the data set with maleate hydratase (1% addition to basal medium) is given as 3.13. Moreover, the “Induction Fold” value in the data set with maleate hydratase (1% addition to basal medium, relative to no addition (1.0)) is given as 4.8. Also, in data set [1], the “Growth at 68 Hours O.D. (660 nm)” value is given as 4.1. For the compound `O=C(O)CN(CCN(CC(=O)O)CC(=O)O)CC(=O)O` [EDTA], the “inhibition of enzyme activity” value in data set [2] is “no inhibition”. As to `O=C(O)CI` [IAA, iodoacetic acid], the “inhibition of enzyme activity” value in data set [2] was determined as 12%. On to `O=C(O)/C=C\C(=O)O` [Maleic Acid, maleic acid], for which the “Induction Fold” value in the data set with maleate hydratase (1 %) amounted to 3.9. In addition, in the data set on maleate hydratase (1% addition to basal medium), the “Specific Activity (amount of (R)-malic acid formed)” value came to 2.56. The “Growth at 68 Hours O.D. (660 nm)” value in data set [1] worked out at 4.5. `CCN1C(=O)C=CC1=O` [NEM, N-ethylmaleimide]: the “inhibition of enzyme activity” value in data set [2] (inhibitor at 10 mM) worked out at 33%. Consider `[Na+].[O-][I+3]([O-])([O-])[O-]` [NaIO4, sodium metaperiodate], for which the “inhibition of enzyme activity” value in data set [2] (inhibitor concentration 1 mM) amounted to 17%. On the same count and under the same terms, as for `O=C(O)c1cc[c]([Hg][Cl])cc1` [PCMB, p-chloromercuribenzoic acid], the figure is 100%. The same measure, in the same setting: next, `O=S(=O)(F)Cc1ccccc1` [PMSF, phenylmethylsulfonylfluoride]: “no inhibition”. Regarding `O=C(O)/C=C/C(=O)O` [fumaric acid], the “action of the enzyme on the substance as substrate” value in data set [3] was “does not act”.
